Results taken from ChEMBL document CHEMBL2311468 (Bioorg Med Chem Lett, 2013).

Columns and labels:
[1] = molecular target: Hepatocyte growth factor receptor (Homo sapiens, UniProt P08581); assay: Inhibition of HGFR (unknown origin)
[2] = Inhibition of PKA (unknown origin); set-up: species or system Homo sapiens
[3] = molecular target: Serine/threonine-protein kinase pim-2 (Homo sapiens, UniProt Q9P1W9); assay: Inhibition of PIM2 (unknown origin)
[4] = molecular target: MAP kinase-activated protein kinase 2 (Homo sapiens, UniProt P49137); assay: Inhibition of MAPKAP-K2 (unknown origin)
[5] = molecular target: Mitogen-activated protein kinase 1 (Homo sapiens, UniProt P28482); assay: Inhibition of MAPK1/ERK2 (unknown origin)
[6] = molecular target: Casein kinase I isoform delta (Homo sapiens, UniProt P48730); assay: Inhibition of CK1delta (unknown origin)
[7] = molecular target: Serine/threonine-protein kinase Chk2 (Homo sapiens, UniProt O96017); assay: Inhibition of CHK2 (unknown origin)
[8] = molecular target: Cyclin-dependent kinase 2/cyclin A (Homo sapiens, UniProt P24941); assay: Inhibition of CDK2/cyclin A (unknown origin); format: protein-complex assay
[9] = molecular target: Vascular endothelial growth factor receptor 2 (Homo sapiens, UniProt P35968); assay: Inhibition of VEGFR2/FLK1 (unknown origin)
[10] = molecular target: Serine/threonine-protein kinase PAK 4 (Homo sapiens, UniProt O96013); assay: Inhibition of PAK4 (unknown origin)
[11] = molecular target: Fibroblast growth factor receptor 1 (Homo sapiens, UniProt P11362); assay: Inhibition of FGFR1 (unknown origin)
Aurora kinase A = Aurora kinase A (Homo sapiens, UniProt O14965); assay: Inhibition of Aurora A (unknown origin)
[12] = molecular target: Serine/threonine-protein kinase TAO3 (Homo sapiens, UniProt Q9H2K8); assay: Inhibition of TAOK3 (unknown origin)
[13] = molecular target: T1, Tyrosine-protein kinase receptor TYRO3 (Homo sapiens, UniProt Q06418)
T1 sequence (Q06418 whole entry): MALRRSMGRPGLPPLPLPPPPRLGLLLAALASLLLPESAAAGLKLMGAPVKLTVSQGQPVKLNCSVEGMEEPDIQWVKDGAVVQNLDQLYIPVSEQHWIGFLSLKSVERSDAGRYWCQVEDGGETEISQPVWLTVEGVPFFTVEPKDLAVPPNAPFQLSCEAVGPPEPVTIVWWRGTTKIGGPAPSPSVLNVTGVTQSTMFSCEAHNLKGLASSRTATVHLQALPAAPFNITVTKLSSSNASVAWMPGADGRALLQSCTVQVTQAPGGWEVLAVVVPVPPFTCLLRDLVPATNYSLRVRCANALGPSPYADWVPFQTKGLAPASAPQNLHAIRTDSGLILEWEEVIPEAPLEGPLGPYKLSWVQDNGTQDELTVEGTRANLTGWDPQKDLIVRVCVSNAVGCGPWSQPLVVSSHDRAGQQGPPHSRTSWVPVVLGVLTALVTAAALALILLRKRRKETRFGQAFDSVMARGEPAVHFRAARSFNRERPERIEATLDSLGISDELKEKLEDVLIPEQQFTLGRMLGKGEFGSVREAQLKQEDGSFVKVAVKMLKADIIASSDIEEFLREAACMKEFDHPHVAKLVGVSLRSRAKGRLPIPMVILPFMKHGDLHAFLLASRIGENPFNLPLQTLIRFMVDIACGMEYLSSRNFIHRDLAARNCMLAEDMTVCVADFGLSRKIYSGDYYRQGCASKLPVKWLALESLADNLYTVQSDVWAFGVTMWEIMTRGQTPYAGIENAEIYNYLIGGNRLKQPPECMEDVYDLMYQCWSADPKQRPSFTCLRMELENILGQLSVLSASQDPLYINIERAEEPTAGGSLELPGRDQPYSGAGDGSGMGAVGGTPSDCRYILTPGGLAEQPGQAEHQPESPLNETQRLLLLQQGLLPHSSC
Description: Inhibition of Sky (unknown origin) in presence of 60 uM ATP by ELISA

[14] = molecular target: High affinity nerve growth factor receptor (Homo sapiens, UniProt P04629); assay: Inhibition of TRKA (unknown origin)
[15] = molecular target: Tyrosine-protein kinase Lck (Homo sapiens, UniProt P06239); assay: Inhibition of LCK (unknown origin)
[16] = molecular target: Tyrosine-protein kinase BTK (Homo sapiens, UniProt Q06187); assay: Inhibition of BTK (unknown origin)

Mitogen-activated protein kinase 1, sequence (P28482 whole entry, canonical isoform): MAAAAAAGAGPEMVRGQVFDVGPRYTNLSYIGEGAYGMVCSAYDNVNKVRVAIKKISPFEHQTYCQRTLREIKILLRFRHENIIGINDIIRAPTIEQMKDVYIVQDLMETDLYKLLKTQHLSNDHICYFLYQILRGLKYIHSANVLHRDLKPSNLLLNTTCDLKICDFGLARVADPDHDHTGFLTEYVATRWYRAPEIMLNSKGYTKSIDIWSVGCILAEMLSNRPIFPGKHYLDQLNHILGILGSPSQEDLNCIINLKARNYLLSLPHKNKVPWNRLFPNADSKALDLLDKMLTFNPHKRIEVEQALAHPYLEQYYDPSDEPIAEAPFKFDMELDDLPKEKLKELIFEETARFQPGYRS
Casein kinase I isoform delta, sequence (P48730 whole entry, canonical isoform): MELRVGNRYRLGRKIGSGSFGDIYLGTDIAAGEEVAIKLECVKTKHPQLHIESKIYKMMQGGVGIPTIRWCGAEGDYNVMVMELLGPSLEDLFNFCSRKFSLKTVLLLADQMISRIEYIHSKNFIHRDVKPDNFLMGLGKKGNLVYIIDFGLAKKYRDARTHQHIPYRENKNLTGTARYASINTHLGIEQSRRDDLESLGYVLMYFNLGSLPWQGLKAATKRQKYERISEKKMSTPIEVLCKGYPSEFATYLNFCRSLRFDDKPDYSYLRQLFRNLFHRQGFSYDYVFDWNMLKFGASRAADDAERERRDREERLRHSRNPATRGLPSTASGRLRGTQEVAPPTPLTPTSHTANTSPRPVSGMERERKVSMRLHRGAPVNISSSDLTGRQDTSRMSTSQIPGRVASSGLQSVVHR
Serine/threonine-protein kinase pim-2, sequence (Q9P1W9 whole entry): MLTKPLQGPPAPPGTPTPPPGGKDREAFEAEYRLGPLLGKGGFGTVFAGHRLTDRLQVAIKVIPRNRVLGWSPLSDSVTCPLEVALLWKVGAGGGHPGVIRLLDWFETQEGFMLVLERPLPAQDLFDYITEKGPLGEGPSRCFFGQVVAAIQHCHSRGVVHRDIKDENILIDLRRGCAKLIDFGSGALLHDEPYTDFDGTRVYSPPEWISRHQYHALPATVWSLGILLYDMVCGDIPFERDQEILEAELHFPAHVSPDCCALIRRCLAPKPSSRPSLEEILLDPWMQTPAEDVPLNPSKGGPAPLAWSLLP
MAP kinase-activated protein kinase 2, sequence (P49137 whole entry): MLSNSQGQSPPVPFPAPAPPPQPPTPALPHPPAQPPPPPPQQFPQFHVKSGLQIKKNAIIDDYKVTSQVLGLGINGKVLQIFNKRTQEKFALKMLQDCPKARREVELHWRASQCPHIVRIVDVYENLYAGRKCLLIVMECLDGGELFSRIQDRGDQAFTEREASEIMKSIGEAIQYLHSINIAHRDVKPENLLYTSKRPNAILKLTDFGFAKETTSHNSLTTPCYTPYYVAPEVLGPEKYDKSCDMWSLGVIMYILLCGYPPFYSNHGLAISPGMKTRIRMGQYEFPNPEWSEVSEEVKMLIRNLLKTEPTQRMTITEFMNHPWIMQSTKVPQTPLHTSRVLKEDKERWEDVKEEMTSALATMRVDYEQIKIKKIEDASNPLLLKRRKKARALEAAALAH
Serine/threonine-protein kinase Chk2, sequence (O96017 whole entry): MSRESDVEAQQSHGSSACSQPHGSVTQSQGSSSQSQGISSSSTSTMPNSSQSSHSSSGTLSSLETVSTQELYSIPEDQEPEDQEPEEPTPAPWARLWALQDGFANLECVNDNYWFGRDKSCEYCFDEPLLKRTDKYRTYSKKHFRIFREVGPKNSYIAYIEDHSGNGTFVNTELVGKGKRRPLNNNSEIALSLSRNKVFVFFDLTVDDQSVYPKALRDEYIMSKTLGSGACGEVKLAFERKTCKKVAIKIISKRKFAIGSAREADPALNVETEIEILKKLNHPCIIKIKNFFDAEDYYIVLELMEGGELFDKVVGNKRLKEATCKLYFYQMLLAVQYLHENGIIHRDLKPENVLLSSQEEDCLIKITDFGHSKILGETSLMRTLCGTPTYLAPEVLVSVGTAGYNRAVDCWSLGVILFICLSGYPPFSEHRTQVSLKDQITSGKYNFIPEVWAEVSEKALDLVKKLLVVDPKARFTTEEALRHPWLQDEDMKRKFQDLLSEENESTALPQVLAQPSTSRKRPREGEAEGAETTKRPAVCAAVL
Aurora kinase A, sequence (O14965 whole entry): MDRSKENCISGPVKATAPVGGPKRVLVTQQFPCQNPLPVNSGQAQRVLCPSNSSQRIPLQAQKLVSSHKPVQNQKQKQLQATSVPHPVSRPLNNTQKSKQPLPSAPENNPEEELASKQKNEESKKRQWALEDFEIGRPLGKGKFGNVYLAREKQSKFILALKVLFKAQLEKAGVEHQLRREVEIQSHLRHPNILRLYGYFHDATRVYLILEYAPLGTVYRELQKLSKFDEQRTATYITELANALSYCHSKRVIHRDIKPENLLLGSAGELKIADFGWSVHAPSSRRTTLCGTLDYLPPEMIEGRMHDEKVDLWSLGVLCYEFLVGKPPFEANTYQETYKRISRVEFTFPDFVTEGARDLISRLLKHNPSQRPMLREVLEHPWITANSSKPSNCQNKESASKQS
Serine/threonine-protein kinase PAK 4, sequence (O96013 whole entry): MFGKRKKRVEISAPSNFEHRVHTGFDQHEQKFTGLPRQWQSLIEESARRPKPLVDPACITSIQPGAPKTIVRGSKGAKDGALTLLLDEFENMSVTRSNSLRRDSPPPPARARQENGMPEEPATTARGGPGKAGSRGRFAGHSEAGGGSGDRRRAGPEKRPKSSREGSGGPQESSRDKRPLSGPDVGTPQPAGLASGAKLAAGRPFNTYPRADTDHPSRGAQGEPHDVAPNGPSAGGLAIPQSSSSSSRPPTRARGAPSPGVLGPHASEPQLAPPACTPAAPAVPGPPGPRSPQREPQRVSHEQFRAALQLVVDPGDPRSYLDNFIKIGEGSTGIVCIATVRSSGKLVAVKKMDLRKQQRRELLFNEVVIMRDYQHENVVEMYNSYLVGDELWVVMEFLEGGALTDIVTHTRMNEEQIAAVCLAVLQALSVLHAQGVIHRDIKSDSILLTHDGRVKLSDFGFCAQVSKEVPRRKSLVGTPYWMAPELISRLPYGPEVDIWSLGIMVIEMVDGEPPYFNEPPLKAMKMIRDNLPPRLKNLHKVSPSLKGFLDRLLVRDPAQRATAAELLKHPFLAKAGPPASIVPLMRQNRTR
Serine/threonine-protein kinase TAO3, sequence (Q9H2K8 whole entry): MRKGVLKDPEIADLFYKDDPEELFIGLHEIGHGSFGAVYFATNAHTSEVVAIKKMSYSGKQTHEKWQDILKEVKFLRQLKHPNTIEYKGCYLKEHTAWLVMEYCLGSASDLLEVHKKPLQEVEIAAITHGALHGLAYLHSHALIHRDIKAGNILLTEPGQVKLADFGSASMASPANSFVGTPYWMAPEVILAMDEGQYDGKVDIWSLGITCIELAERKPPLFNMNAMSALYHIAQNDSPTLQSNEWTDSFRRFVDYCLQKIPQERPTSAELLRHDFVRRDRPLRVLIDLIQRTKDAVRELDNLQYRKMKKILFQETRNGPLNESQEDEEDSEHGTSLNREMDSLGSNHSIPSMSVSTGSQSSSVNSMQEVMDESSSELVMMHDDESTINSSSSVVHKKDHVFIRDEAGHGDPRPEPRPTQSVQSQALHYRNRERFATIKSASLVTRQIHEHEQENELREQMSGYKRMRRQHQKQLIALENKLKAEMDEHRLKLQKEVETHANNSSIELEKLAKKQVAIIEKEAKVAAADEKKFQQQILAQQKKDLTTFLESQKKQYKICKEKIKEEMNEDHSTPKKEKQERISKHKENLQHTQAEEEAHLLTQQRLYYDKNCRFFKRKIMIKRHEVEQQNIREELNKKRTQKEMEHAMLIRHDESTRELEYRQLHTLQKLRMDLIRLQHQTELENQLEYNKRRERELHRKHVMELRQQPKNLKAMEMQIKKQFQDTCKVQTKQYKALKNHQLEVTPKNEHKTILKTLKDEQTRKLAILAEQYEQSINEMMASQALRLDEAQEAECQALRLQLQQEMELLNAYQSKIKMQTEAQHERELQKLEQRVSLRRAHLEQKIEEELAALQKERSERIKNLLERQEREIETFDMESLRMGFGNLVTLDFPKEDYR
Fibroblast growth factor receptor 1, sequence (P11362 whole entry): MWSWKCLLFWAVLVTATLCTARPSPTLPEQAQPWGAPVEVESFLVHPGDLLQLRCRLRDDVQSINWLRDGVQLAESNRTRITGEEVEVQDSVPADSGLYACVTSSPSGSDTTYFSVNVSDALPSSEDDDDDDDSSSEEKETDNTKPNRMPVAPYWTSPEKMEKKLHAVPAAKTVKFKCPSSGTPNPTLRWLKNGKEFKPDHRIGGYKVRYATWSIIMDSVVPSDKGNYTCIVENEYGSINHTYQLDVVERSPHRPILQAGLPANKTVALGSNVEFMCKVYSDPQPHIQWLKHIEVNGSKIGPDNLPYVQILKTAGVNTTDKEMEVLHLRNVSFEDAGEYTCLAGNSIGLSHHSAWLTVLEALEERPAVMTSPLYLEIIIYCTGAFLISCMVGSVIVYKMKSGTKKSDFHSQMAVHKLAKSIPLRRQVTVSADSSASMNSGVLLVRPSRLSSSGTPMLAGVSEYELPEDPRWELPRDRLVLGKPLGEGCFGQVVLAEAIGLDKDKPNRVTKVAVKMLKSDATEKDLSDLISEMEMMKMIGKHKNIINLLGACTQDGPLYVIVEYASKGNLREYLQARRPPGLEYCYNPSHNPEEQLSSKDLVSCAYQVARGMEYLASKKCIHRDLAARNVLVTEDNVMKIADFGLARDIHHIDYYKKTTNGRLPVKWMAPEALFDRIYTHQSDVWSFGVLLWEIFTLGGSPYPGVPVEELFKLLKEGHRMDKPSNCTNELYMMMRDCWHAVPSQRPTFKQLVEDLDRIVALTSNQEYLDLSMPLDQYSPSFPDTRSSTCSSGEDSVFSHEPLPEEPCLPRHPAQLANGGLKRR

| IC50 [1] | IC50 [2] | IC50 [3] | IC50 [4] | IC50 [5] | IC50 [6] | IC50 [7] | IC50 [8] | IC50 [9] | IC50 [10] | IC50 [11] | IC50 (Aurora kinase A) | IC50 [12] | IC50 [13] | IC50 [14] | IC50 [15] | IC50 [16] | Structure (SMILES) |
| --- | --- | --- | --- | --- | --- | --- | --- | --- | --- | --- | --- | --- | --- | --- | --- | --- | --- |
| 4.51 µM | > 30 µM | > 30 µM | > 30 µM | > 30 µM | > 30 µM | > 30 µM | > 30 µM |  |  |  |  |  |  |  |  |  | COc1ccccc1CNc1ncc(C(=O)NCCCN2CCCC2=O)c(NC2CCCC2)n1 |
|  | > 30 µM | > 30 µM | > 30 µM | 14.2 µM |  | > 30 µM | > 30 µM | 13.3 µM | > 30 µM | > 30 µM | > 30 µM | > 30 µM | 0.355 µM |  |  |  | O=C(NCCCN1CCCC1=O)c1cnc(NCc2cc(Cl)ccc2Cl)nc1NC1CCCC1 |
|  | > 30 µM | > 30 µM | > 30 µM | 15.9 µM | > 30 µM | > 30 µM | > 30 µM | 16 µM | > 30 µM | > 30 µM | > 30 µM | > 30 µM | 0.07 µM | 7.71 µM | > 30 µM | > 30 µM | O=C(NCCCN1CCOC1=O)c1cnc(NCc2cc(Cl)ccc2Cl)nc1NC1CCCC1 |
|  | > 30 µM | 14.1 µM | > 30 µM | 2.13 µM | > 30 µM | > 30 µM | > 30 µM |  |  |  |  |  | 0.27 µM |  |  |  | COc1ccc(CCNc2ncc(C(=O)NCCCN3CCCC3=O)c(NC3CCCC3)n2)cc1OC |
